The test system of assay [1] is male db/db mice. Put plainly: In vivo assay for reduction in blood glucose levels (Example 7A). The note with it: for reduction in plasma glucose from baseline: after 6 hours, oral. As for the experimental part:
Male db/db mice 6-7 weeks (approx 30 g) were fasted for 2 h. A combination of (−)-(3R,5R)-trans-3-butyl-3-ethyl-2,3,4,5-tetrahydro-7,8-dimethoxy-5-phenyl-1,4-benzothiazepine1,1-dioxide (Compound 100A) at doses of 0, 0.1, 1, 10, mg/kg in 10% of DMSO-water and 30 mg/kg sitagliptin (DPP-IV inhibitor) in a mixture of valine-pyrrolidine in water was administered orally to male db/db mice (n=7-10 per group). Blood sample (˜1 μl from tail for glucose level testing) was taken at t=−24 h, 0, 60, 180, 240, 300, 360 min and 24 h after administration.

The next assay has as its system diabetic db/db mice. Put plainly: Oral ASBTI with DPP-IV inhibitor versus subcutaneous exenatide, blood glucose (Example 9). It counts as in vivo.
Assay [2] deals with Sprague Dawley rats. As for the experimental part: Using a stainless steel dissolving vessel fitted with a propeller stirrer 1 gram of methyl cellulose is dissolved in 100 mL of purified water and stirred for 15 minutes. 12 syringes connected to gavage tubes are then each filled with 3 mL of the composition.
A 4×4 Latin Square design is used to monitor the effect of the different concentration of taurocholate on the food uptake of overnight-fasted Sprague Dawley rats. Each concentration is tested in triplicate with four rats used per replicate.
The ED50 for inhibition of food intake is obtained by plotting the normalizing the dose response for the anorectic effect of taurocholate to the control data as a log of taurocholate dose vs the percentage of control cumulative intake (FIG. 7).

Another assay has as its system obese diabetic humans. The note with it: rectal 0.66, 2.0, 6.66, 20.0 mmoles in 20 ml 1% carboxymethyl cellulose gel, after 100 mg sitagliptin. Here is the method: Studies were undertaken after an overnight fast following administration (8-10 hours prior to bile salt) of 100 mg sitagliptin, a DPP-4 inhibitor that protects GLP-1 from inactivation by proteolysis. […] The taurocholic acid was administered into the rectum by syringe in a total volume of 20 ml of 1% carboxymethyl cellulose gel. Each dose was administered on a different day with at least three days between doses.

For assay [3], the system named is Sprague Dawley rats. The following applies: 500 mM sodium taurocholate gel, 3 mL per rectum, overnight-fasted rats, 6 hour period. Here is the method: Using a stainless steel dissolving vessel fitted with a propeller stirrer 1 gram of methyl cellulose is dissolved in 100 mL of purified water and stirred for 15 minutes. 5 syringes connected to gavage tubes are then each filled with 3 mL of the composition.
The sodium taurocholate rectal gel described above was rectally administered to 6 conscious overnight-fasted subjects (e.g., Sprague Dawley rats) and the control rectal gel without the sodium taurocholate was rectally administered to 5 conscious overnight-fasted subjects (e.g., Sprague Dawley rats). Each rat was then exposed to pre-weighed food and the cumulative consumption of the food was determined over a 6 hour period by weighing the food after 30 minutes, 60 minutes, 120 minutes, 240 minutes and 360 minutes.

The test system of assay [4] is male db/db mice. Put plainly: In vivo assay for reduction in blood glucose levels (Example 7B). The following applies: for reduction in plasma glucose from baseline: after 6 hours, oral, male db/db mice. Here is the method:
Male db/db mice 8-9 weeks (approx 40 g) were fasted for 2 h. […] Blood sample (˜1 μl from tail for glucose level testing) was taken at t=−24 h, 0, 1, 3, 4, 5, 6 h and 24 h after administration.

In another assay the test system is GLP-1. Put plainly: Plasma GLP-1 levels in normal rats after oral dosing (Example 8). It counts as in vivo. Here is the method:
12-week-old male HSD rats were fasted for 16 h and given oral dose of 0, 3, 30, 100 mg/kg of the ASBTI 1-[4-[4-[(4R,5R)-3,3-dibutyl-7-(dimethylamino)-2,3,4,5-tetrahydro-4-hydroxy-1,1-dioxido-1-benzothiepin-5-yl]phenoxy]butyl]4-aza-1-azoniabicyclo[2.2.2]octane methane sulfonate (Synthesized by Nanosyn Inc., CA, USA) or metformin (Control, 0, 3, 30, 100, 300 mg/kg) in saline and a dose of 30 mg/kg sitaglipin in a mixture of valine-pyrrolidine in water (n=5 per group). Blood samples in volume of 0.6 ml for each time point were taken from the caudal vein with a heparinized capillary tube 0, 1, 3 and 5 h after the administration of compounds and plasma GLP-1 level were determined. Aprotinin and 10 μl of DPP-IV inhibitor per ml of blood were used for blood sample preservation during 10 min centrifugation and for storage at −70° C. or below. GLP-1 (Active pM) was tested by Millipore ELISA Kits (Millipore Corporation, 290 Concord Road, Billerica, Mass.).

Where two headings read alike, the source gives them in different places.

As to `CCCC[C@]1(CC)CS(=O)(=O)c2cc(OC)c(OC)cc2[C@@H](c2ccccc2)N1` (relative stereo) [Compound 100A, (−)-(3R,5R)-trans-3-butyl-3-ethyl-2,3,4,5-tetrahydro-7,8-dimethoxy-5-phenyl-1,4-benzothiazepine1,1-dioxide], the “change in body weight” value in the assay with male db/db mice [1] (24 h after administration, FIG. 9) was “Weight loss”. Moreover, the plasma glucose concentrations result with male db/db mice [1] (ASBTI alone, male db/db mice, FIG. 1) is reported as “lowers plasma glucose concentrations”. Moreover, the “reduction in plasma glucose from baseline” value (from here on “reduction in plasma glucose”) came to 5.6% with male db/db mice [1] (dose 01 mg/kg (so in the source) with 30 mg/kg sitagliptin, male db/db mice); 15% in the assay on male db/db mice [1] (dose 1 mg/kg with 30 mg/kg sitagliptin, male db/db mice); 42.3% in the assay on male db/db mice [1] (dose 10 mg/kg with 30 mg/kg sitagliptin, male db/db mice). The “elevated blood glucose levels compared to control mice treated with sitagliptin alone or vehicle” value with male db/db mice [1] (single oral administration in combination with 30 mg/kg sitagliptin, FIG. 1) is “dose-dependent reduction”. For the same compound, the “reduction of plasma glucose levels” value with diabetic db/db mice (3 hours post-dose, oral 10 mg/kg in combination with 30 mg/kg sitagliptin) turned out to be 35%.
As to `C[C@H](CCC(=O)NCCS(=O)(=O)O)[C@H]1CC[C@H]2[C@@H]3[C@H](O)C[C@@H]4C[C@H](O)CC[C@]4(C)[C@H]3C[C@H](O)[C@]12C` [taurocholate, taurocholic acid], the cumulative food intake result in the assay on Sprague Dawley rats [2] (50, 150, 500 mM taurocholate gels, 3 mL per rectum, overnight-fasted rats) is reported as “dose dependently related to the quantity of taurocholate administered”. The “ED50 for inhibition of food intake” value is on record as 7.2 mmol/rat in the assay with Sprague Dawley rats [2] (24 hour intake); 1.6 mmol/rat in the assay on Sprague Dawley rats [2] (at 1 hour); 528 mM in the assay with Sprague Dawley rats [2] (at 1 hour, 3 mL doses per rectum). Besides, the “time for which differences in food uptake are maintained” value in the assay with Sprague Dawley rats [2] (rectal taurocholate gels, rats) is “at least 24 hours”. The “circulating GLP-1 levels” value in the assay with obese diabetic humans is recorded as “increase”. Further, the “circulating PYY levels” value with obese diabetic humans was “increase”. The “cumulative food intake compared to gel alone” value in the assay on Sprague Dawley rats [3] is reported as “reduced”.
Turning to `N[C@@H](CC(=O)N1CCn2c(nnc2C(F)(F)F)C1)Cc1cc(F)c(F)cc1F` [sitagliptin, (3R)-3-amino-1-[9-(trifluoromethyl)-1,4,7,8-tetrazabicyclo[4.3.0]nona-6,8-dien-4-yl]-4-(2,4,5-trifluorophenyl)butan-1-one, reference compound], the “reduction in plasma glucose” value in the assay with male db/db mice [1] (dose 0 mg/kg of ASBTI with 30 mg/kg sitagliptin, male db/db mice) came out at 5.5%; with male db/db mice [4] (dose 0 mg/kg of ASBTI with 30 mg/kg sitagliptin), 5.5%.
Consider `CCCCC1(CCCC)CS(=O)(=O)c2ccc(N(C)C)cc2[C@@H](c2ccc(OCCCC[N+]34CCN(CC3)CC4)cc2)[C@H]1O.CS(=O)(=O)[O-]` [Compound 100B, 1-[4-[4-[(4R,5R)-3,3-dibutyl-7-(dimethylamino)-2,3,4,5-tetrahydro-4-hydroxy-1,1-dioxido-1-benzothiepin-5-yl]phenoxy]butyl]4-aza-1-azoniabicyclo[2.2.2]octane methane sulfonate salt], for which the “blood glucose levels compared with exenatide” value in the assay on diabetic db/db mice (3 hours after dosing, oral, in combination with 30 mg/kg sitagliptin, FIG. 10) was “reduces blood glucose levels more than a single subcutaneous injection of 0.02 mg/kg exenatide”. Besides, the “change in body weight” value in the assay on male db/db mice [4] (24 h after administration, in combination with sitagliptin, FIG. 8) is given as “Weight loss”. The plasma glucose levels result with male db/db mice [4] (ASBTI alone, db/db mice, FIG. 4) is “lowers plasma glucose levels in dose dependent manner”. Besides, the figures for the “reduction in plasma glucose” value with male db/db mice [4] (dose 3 mg/kg with 30 mg/kg sitagliptin), in the assay with male db/db mice [4] (dose 30 mg/kg with 30 mg/kg sitagliptin) and in the assay with male db/db mice [4] (dose 100 mg/kg with 30 mg/kg sitagliptin) were 5.6%, 15% and 42.3%, respectively. In addition, in the assay with male db/db mice [4] (single oral administration in combination with 30 mg/kg sitagliptin, FIG. 2), the “elevated blood glucose levels compared to control mice treated with sitagliptin alone or vehicle” value was “dose-dependent reduction”. Besides, the “plasma GLP-1 levels” value is reported as “elevation in GLP-1 levels in a dose-dependent manner” in the assay with GLP-1 (ASBTI alone, oral 0, 3, 30, 100 mg/kg, FIG. 6, FIG. 7) and “elevation in GLP-1 levels in a dose-dependent manner” with GLP-1 (ASBTI in combination with 30 mg/kg sitagliptin, oral, FIG. 6, FIG. 7).
Regarding `CN(C)C(=N)N=C(N)N` [metformin, reference compound], the “plasma GLP-1 levels” value in the assay with GLP-1 (metformin in combination with 30 mg/kg sitagliptin, oral, FIG. 5) is “elevation in GLP-1 levels”.

These data come from patent US11260053B2, “Bile acid recycling inhibitors and satiogens for treatment of diabetes, obesity, and inflammatory gastrointestinal conditions” (Satiogen Pharmaceuticals, Inc., priority 2010, dated 2022).
